In patent US20210198269A1, “INHIBITORS OF GLUCOSE TRANSPORTERS (GLUTs)” (LEAD DISCOVERY CENTER GMBH, priority 2018, published 2021):

Assays:
Format in all cases: cell-based
[1] = molecular target: T1, GLUT1 (Homo sapiens, UniProt P11166); assay: GLUT1 transporter activity assay (2-DG uptake) in DLD1 cells; conditions: DLD1 cell line; read-out: GLUT1 inhibitory activity (IC50)
T1 construct: host or cells: DLD-1 (DLD1) cells
T1 sequence (P11166 1-492): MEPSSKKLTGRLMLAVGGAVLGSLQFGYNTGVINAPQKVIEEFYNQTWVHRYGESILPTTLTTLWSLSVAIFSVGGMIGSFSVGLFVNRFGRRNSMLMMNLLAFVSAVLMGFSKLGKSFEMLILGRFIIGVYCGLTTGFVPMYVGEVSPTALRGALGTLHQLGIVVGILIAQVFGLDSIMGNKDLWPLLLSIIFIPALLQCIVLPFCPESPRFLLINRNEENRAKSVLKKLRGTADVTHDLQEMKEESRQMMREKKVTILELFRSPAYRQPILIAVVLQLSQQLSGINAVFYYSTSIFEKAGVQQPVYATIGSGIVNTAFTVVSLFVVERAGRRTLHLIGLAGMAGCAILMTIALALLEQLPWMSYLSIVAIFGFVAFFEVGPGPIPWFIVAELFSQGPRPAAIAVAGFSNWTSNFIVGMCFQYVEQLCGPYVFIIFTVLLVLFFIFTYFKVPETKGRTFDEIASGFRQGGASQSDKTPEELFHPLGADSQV
How it was run: (§1)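 DLD1 cells (GLUT1) or DLD-1-GLUT1−/− cells (GLUT3) in glucose-free RPMI with 1% FCS, treated with compound plus 1 mM 2-DG for 30 min. Lysate 2-DG measured by G6PDH/diaphorase-coupled resazurin-to-resorufin fluorescence (ex/em 535/590 nm), blank-subtracted and normalized to DMSO control.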

[2] = molecular target: T2, GLUT3 (Homo sapiens, UniProt P11169); assay: GLUT3 transporter activity assay (2-DG uptake) in DLD-1-GLUT1-/- cells; conditions: DLD-1-GLUT1-/- cell line; read-out: GLUT3 inhibitory activity (IC50)
T2 construct: host or cells: DLD-1-GLUT1(-/-) cells
T2 sequence (P11169 1-496): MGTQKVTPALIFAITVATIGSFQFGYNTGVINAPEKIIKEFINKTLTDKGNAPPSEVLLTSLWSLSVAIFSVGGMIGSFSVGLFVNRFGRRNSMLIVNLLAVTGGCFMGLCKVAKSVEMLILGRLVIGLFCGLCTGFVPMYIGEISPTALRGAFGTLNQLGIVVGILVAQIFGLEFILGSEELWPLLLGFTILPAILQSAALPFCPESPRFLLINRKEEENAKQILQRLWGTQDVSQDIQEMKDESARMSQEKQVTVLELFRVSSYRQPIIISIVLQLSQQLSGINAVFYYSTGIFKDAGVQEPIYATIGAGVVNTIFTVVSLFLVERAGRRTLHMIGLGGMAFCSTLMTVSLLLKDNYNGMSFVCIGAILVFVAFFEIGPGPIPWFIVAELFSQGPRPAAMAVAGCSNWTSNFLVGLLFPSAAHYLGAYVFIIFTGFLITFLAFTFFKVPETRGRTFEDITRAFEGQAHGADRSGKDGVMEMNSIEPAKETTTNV
How it was run: as §1

[3] = test system: HCT116 cells; assay: 2-Deoxy-Glucose (2-DG) uptake assay in HCT116 cells; conditions: Homo sapiens, HCT-116, 0.5 h, 1 mM 2-DG, 30 min, read-out: IC50 determined for the inhibition of 2-DG uptake in HCT116 cells
Procedure: The 2-DG uptake assay was carried out as described by Yamamoto N. et al. with slight modifications ([…]). Briefly, 40,000 HCT116 or CHO cells were seeded in black, clear bottom 96-well plates and allowed to attach overnight. Cells were incubated with compounds or DMSO and 1 mM 2-DG in glucose-free KRB buffer (20 mM HEPES, 5 mM KH2PO4, 1 mM MgSO4, 1 mM CaCl2), 136 mM NaCl, 0.1% BSA, pH 7.4) for 30 min. In the case of GLUT-4 transfected cells, Insulin (100 μg/mL) was added to the buffer. Cells were then washed and lysed in 0.06 M HCl and 1% CHAPS for 15 min at 65° C. while shaking. The amount of 2-DG in the lysate was determined by means of enzyme-coupled assay. For this 6.4 U/mL glucose-6-phosphate dehydrogenase, 0.2 U/mL diaphorase, 0.1 mM NADP^+ and 0.025 mg/mL resazurin were added to the lysates. Resorufin fluorescence was determined as a measure of 2-DG uptake at ex/em 535/590 nm with a Tecan Infinite M200 plate reader (Tecan). Blank values were subtracted from all readings and values were normalized to the DMSO control.

[4] = molecular target: T3, GLUT4 (Homo sapiens, UniProt P14672); assay: GLUT4 transporter activity assay (2-DG uptake) in CHO-hGLUT4 cells; conditions: CHO-hGLUT4 cell line; read-out: GLUT4 inhibitory activity (IC50)
T3 sequence (P14672 1-509): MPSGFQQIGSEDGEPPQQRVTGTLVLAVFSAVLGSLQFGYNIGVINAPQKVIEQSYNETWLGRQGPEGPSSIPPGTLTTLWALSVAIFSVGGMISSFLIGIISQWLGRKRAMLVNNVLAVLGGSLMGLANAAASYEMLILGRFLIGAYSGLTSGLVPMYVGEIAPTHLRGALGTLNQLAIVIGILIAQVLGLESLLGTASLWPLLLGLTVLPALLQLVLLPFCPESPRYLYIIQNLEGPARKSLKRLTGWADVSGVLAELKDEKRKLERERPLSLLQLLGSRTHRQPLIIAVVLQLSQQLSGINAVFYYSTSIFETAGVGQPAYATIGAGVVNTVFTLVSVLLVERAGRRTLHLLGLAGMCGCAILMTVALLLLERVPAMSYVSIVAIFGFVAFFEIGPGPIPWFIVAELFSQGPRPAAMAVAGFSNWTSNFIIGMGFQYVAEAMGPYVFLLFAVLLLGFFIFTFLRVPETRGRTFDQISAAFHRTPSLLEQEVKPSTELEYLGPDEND
How it was run: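 Stable CHOK1 clone overexpressing human GLUT4 (7,000 cells/well), in glucose-free RPMI with 1% FCS, incubated with compound and 1 mM 2-DG for 30 min. After acid/CHAPS lysis at 65 °C, 2-DG quantified by G6PDH/diaphorase-coupled resazurin-to-resorufin fluorescence (ex/em 535/590 nm). Blank-subtracted, normalised to DMSO.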

Cc1ccc(CCNC(=O)c2cccc(N3C(=O)NC4CC3(C)Oc3c(OCc5ccco5)cccc34)c2)cc1 (stereo not shown) [Compound A07, 3-(10-(Furan-2-ylmethoxy)-2-methyl-4-oxo-5,6-dihydro-2H-2,6-methanobenzo[g][1,3,5]oxadiazocin-3(4H)-yl)-N-(4-methylphenethyl)benzamide]
IC50 [1]: 300 to 1000 nM
IC50 [2]: 300 to 1000 nM
IC50 [3]: ≤ 5000 nM
IC50 [4]: 4000 to 10000 nM
